Experimental data reported in patent US11034672B1, “Tyrosine kinase inhibitor compositions, methods of making and methods of use” (Black Diamond Therapeutics, Inc., priority 2018, dated 2021).

What was measured:
Type in all cases: cell-based
[1] = molecular target: T1, EGFR WT (Homo sapiens, UniProt P00533); experiment: Activity for inhibiting EGFR (Table A), EGFR WT; details: read-out: EGFR WT, potency code (IC50)
[2] = molecular target: T2, EGFR V3 (Homo sapiens, UniProt P00533, DELINS30-297G); experiment: Activity for inhibiting EGFR (Table A), EGFR V3 (EGFR-Viii); details: read-out: EGFR V3, potency code (IC50)
T2 construct: expressed in transfected cells; host or cells: BaF3 (murine pro-B), retroviral pMXs-IRES-Blasticidin
T2 sequence (P00533 with tags, fused parts or gaps DELINS30-297G): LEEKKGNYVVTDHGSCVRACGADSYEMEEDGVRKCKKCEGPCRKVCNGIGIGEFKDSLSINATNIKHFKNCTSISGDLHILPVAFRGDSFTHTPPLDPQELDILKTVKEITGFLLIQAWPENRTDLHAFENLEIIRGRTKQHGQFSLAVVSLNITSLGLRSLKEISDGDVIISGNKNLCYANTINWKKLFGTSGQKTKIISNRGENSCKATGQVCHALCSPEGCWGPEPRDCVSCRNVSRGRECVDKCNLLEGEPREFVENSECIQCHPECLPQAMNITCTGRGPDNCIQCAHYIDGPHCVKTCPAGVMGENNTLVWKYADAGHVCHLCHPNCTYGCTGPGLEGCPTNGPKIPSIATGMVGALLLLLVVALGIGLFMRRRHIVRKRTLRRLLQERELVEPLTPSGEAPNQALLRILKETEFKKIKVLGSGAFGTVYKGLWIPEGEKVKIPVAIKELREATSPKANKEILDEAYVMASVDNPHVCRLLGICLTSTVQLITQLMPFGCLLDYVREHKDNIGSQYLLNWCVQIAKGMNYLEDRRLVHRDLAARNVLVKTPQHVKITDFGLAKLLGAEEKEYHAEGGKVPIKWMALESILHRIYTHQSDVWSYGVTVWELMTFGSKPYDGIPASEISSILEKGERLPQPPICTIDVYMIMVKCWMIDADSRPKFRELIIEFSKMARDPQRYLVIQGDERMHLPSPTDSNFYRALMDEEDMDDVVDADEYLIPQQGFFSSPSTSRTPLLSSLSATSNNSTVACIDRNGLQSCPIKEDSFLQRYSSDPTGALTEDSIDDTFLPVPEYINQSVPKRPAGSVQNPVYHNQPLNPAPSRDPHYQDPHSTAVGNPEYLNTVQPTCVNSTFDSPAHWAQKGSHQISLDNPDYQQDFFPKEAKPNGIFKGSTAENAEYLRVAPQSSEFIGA

[3] = molecular target: T3, HER2 S310F (Homo sapiens, UniProt P04626, S310F); experiment: Activity for inhibiting HER2 (Table B), HER2 S310F; details: read-out: HER2 S310F, potency code (IC50)
T3 construct: expressed in transfected cells; host or cells: BaF3 (murine pro-B)
T3 sequence (P04626 23-1255 S310F): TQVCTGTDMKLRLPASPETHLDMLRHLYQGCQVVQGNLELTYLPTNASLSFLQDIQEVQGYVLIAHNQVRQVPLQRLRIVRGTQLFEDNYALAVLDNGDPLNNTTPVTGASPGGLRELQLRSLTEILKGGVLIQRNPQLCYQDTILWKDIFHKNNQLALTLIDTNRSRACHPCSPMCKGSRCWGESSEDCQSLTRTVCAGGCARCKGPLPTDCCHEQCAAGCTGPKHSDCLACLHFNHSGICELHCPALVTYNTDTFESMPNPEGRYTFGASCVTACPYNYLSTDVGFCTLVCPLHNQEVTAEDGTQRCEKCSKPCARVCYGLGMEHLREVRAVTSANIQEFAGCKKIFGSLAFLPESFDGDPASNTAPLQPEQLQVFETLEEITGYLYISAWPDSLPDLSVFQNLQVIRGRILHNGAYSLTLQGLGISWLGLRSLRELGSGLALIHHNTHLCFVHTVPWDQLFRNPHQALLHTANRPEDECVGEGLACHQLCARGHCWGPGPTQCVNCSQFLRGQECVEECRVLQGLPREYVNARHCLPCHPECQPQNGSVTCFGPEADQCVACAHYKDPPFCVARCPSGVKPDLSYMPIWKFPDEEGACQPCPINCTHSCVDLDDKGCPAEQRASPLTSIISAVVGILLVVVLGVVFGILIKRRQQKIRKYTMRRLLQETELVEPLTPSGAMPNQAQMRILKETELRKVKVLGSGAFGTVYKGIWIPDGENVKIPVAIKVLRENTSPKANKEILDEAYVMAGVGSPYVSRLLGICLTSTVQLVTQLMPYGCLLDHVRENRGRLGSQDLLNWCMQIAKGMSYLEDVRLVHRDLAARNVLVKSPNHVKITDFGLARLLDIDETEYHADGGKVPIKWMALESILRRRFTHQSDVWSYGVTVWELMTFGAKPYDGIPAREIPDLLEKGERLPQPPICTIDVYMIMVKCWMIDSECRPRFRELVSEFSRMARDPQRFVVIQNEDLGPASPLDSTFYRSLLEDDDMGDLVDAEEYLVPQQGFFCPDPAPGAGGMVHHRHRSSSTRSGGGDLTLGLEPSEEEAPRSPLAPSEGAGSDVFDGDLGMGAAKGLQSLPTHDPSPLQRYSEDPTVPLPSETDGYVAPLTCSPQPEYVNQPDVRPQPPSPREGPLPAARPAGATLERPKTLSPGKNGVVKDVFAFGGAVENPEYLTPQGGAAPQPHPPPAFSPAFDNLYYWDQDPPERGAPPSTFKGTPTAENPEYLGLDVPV
Description: (§1) EC50 values were determined with the same application.

[4] = molecular target: T4, HER2 YVMA (Homo sapiens, UniProt P04626, INS775YVMA); experiment: Activity for inhibiting HER2 (Table B), HER2 YVMA; details: read-out: HER2 YVMA, potency code (IC50)
T4 construct: expressed in transfected cells; host or cells: BaF3 (murine pro-B)
T4 sequence (P04626 with tags, fused parts or gaps INS775YVMA): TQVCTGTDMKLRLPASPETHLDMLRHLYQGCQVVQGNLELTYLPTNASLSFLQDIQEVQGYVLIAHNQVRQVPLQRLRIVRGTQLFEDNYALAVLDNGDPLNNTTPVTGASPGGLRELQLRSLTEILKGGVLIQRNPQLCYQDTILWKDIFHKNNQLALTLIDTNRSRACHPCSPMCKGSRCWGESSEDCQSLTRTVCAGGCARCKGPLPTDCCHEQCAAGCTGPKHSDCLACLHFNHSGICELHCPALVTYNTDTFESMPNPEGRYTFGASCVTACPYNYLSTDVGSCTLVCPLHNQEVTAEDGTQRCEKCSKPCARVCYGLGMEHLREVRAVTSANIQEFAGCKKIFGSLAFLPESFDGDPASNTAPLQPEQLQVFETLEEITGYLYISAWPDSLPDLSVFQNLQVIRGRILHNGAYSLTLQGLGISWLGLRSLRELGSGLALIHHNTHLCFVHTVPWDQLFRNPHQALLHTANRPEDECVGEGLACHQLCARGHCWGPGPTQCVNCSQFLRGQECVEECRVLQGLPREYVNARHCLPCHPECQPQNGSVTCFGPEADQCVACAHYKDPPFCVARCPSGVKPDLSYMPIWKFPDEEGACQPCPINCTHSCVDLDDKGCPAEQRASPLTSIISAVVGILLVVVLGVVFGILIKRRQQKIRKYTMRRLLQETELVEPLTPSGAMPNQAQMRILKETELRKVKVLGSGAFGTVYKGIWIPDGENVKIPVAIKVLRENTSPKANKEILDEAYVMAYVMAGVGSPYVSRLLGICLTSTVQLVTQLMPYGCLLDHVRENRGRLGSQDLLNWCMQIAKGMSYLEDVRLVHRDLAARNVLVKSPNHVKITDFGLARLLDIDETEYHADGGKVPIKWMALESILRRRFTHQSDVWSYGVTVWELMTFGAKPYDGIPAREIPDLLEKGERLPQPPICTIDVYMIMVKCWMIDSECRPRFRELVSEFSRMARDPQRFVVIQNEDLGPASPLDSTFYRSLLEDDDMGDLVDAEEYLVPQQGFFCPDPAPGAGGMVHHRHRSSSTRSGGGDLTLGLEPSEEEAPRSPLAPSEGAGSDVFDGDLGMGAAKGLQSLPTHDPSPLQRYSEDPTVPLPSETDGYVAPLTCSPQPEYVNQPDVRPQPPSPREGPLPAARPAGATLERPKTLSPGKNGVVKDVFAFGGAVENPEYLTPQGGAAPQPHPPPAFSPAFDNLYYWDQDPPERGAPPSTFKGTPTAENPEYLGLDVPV
Description: as §1

[5] = molecular target: T1, EGFR WT; experiment: BaF3 cell proliferation assay, EGFR WT (Table A); details: potency code, 3 days, CellTiterGlo, read-out: EGFR WT (Activity for Inhibiting EGFR)
Method in brief: (§2)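 BaF3 + retroviral EGFR/HER2 mutant (two rounds of spinfection, 8 μg/ml polybrene); 10 μg/ml Blasticidin selection 1 wk; IL-3 withdrawn to select IL-3-independent growth. EC50 from cell proliferation.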

[6] = molecular target: T2, EGFR V3; experiment: BaF3 cell proliferation assay, EGFR V3 (Table A); details: potency code, 3 days, CellTiterGlo, read-out: EGFR V3 (Activity for Inhibiting EGFR)
Method in brief: as §2

[7] = molecular target: T3, HER2 S310F; experiment: BaF3 cell proliferation assay, HER2 S310F (Table B); details: potency code, 3 days, CellTiterGlo, read-out: HER2 S310F (Activity for Inhibiting HER2)
[8] = molecular target: T4, HER2 YVMA; experiment: BaF3 cell proliferation assay, HER2 YVMA (Table B); details: potency code, 3 days, CellTiterGlo, read-out: HER2 YVMA (Activity for Inhibiting HER2)

T1 sequence (P00533 25-1210 N540K): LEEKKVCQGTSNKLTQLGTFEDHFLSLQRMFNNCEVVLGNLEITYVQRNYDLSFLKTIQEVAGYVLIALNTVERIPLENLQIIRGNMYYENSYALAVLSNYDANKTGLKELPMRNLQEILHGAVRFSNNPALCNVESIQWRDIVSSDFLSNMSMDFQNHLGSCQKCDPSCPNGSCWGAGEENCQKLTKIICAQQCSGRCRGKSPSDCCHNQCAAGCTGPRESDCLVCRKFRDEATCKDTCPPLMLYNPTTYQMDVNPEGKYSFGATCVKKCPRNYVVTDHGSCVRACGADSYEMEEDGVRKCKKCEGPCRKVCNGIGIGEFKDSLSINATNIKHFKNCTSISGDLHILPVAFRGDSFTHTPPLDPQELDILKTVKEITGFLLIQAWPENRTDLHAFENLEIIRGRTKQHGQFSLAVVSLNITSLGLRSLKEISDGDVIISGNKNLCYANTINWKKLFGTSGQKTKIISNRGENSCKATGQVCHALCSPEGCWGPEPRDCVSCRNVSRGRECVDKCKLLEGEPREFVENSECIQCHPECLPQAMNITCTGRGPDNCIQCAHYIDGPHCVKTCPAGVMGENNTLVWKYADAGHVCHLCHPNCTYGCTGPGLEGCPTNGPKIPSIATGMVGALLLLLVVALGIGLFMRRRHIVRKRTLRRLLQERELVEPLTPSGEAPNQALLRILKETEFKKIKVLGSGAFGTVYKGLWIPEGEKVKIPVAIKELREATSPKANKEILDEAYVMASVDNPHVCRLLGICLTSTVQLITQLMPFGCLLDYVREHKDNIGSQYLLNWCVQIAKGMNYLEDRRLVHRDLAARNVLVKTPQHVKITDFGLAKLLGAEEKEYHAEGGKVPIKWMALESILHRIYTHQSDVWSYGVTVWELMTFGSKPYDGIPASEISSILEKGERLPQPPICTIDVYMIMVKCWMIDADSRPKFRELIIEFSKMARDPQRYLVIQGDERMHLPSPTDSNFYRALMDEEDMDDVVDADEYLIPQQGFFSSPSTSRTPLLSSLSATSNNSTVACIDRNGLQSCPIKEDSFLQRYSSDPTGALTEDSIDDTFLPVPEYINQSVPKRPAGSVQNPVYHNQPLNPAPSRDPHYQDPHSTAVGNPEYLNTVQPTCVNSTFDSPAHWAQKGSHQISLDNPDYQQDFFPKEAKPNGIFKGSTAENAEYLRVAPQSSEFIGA

Row | SMILES | IC50 [1] [nM] | IC50 [2] [nM] | IC50 [3] [nM] | IC50 [4] [nM] | IC50 [5] [nM] | IC50 [6] [nM] | IC50 [7] [nM] | IC50 [8] [nM]
1 | C=CC(=O)Nc1cc2c(Nc3ccc(OCc4ccccn4)c(Cl)c3)ncnc2cc1C#CC1CC2(C1)CN(C)C2 [compound 124, N-(4-((3-chloro-4-(pyridin-2-ylmethoxy)phenyl)amino)-7-((2-methyl-2-azaspiro[3.3]heptan-6-yl)ethynyl)quinazolin-6-yl)acrylamide] | 500 to 1000 | 30 to 50 | 30 to 50 | 100 to 200 | 500 to 1000 | 30 to 50 | 30 to 50 | 100 to 200
2 | C=CC(=O)Nc1cc2c(Nc3ccc(OCc4ccccn4)nc3)ncnc2cc1O[C@@H]1CCN(C)C1 [compound 72] | > 1000 | 300 to 500 | 300 to 500 | > 1000 | > 1000 | 300 to 500 | 300 to 500 | > 1000
3 | C=C(F)C(=O)Nc1cc2c(Nc3ccc(OCc4ccccn4)c(Cl)c3)ncnc2cc1OCCN1CCOCC1 [compound 109, N-(4-((3-chloro-4-(pyridin-2-ylmethoxy)phenyl)amino)-7-(2-morpholinoethoxy)quinazolin-6-yl)-2-fluoroacrylamide] | 30 to 50 | 10 to 20 | 10 to 20 | 50 to 100 | 30 to 50 | 10 to 20 | 10 to 20 | 50 to 100
4 | CC#CC(=O)Nc1cc2c(Nc3ccc(OCc4ccncn4)c(Cl)c3)ncnc2cc1OCCCN1CCOCC1 [compound 164, N-(4-((3-chloro-4-(pyrimidin-4-ylmethoxy)phenyl)amino)-7-(3-morpholinopropoxy)quinazolin-6-yl)but-2-ynamide] | 300 to 500 | 50 to 100 | 30 to 50 | 100 to 200 | 300 to 500 | 50 to 100 | 30 to 50 | 100 to 200
5 | CC#CC(=O)Nc1cc2c(Nc3cc(Cl)c(OCc4cccc(F)c4)cc3F)ncnc2cc1OCCN1CCN(C)CC1 [compound 146, N-(4-((5-chloro-2-fluoro-4-((3-fluorobenzyl)oxy)phenyl)amino)-7-(2-(4-methylpiperazin-1-yl)ethoxy)quinazolin-6-yl)but-2-ynamide] | 50 to 100 | 50 to 100 | 20 to 30 | 50 to 100 | 50 to 100 | 50 to 100 | 20 to 30 | 50 to 100
6 | C=CC(=O)Nc1cc2c(Nc3ccc(OCc4ccccn4)c(Cl)c3)ncnc2cc1OCCN1CC2(CN(C)C2)C1 [compound 119, N-(4-((3-chloro-4-(pyridin-2-ylmethoxy)phenyl)amino)-7-(2-(6-methyl-2,6-diazaspiro[3.3]heptan-2-yl)ethoxy)quinazolin-6-yl)acrylamide] | 300 to 500 | 50 to 100 | 50 to 100 | 100 to 200 | 300 to 500 | 50 to 100 | 50 to 100 | 100 to 200
7 | CC#CC(=O)Nc1cc2c(Nc3cc(Cl)c(OCc4cccc(F)c4)cc3F)ncnc2cc1OCCN1CCOCC1 [compound 149, N-(4-((5-chloro-2-fluoro-4-((3-fluorobenzyl)oxy)phenyl)amino)-7-(2-morpholinoethoxy)quinazolin-6-yl)but-2-ynamide] | 100 to 200 | 50 to 100 | 10 to 20 | 30 to 50 | 100 to 200 | 50 to 100 | 10 to 20 | 30 to 50
8 | C=CC(=O)Nc1cc2c(Nc3ccc(OCc4cccnn4)c(Cl)c3)ncnc2cc1OCCN1CC2CCC(C1)O2 [compound 173] | > 1000 | 50 to 100 | 30 to 50 | 200 to 300 | > 1000 | 50 to 100 | 30 to 50 | 200 to 300
